Experimental data as given in ChEMBL document CHEMBL1212758 (Antimicrob Agents Chemother, 2010).

How the values were obtained:
[1] = system: Macacine alphaherpesvirus 1; test: Antiviral activity against Macacine herpesvirus 1 isolate MR5 infected in african green monkey Vero cells by plaque reduction assay; format: functional, organism-based; settings: Macacine alphaherpesvirus 1, isolate MR5, Vero
[2] = system: Macacine alphaherpesvirus 1; test: Antiviral activity against Macacine herpesvirus 1 isolate MR6 infected in african green monkey Vero cells by plaque reduction assay; format: functional, organism-based; settings: Macacine alphaherpesvirus 1, isolate MR6, Vero
[3] = system: Macacine alphaherpesvirus 1; test: Antiviral activity against Macacine herpesvirus 1 isolate MR7 infected in african green monkey Vero cells by plaque reduction assay; format: functional, organism-based; settings: Macacine alphaherpesvirus 1, isolate MR7, Vero
[4] = system: Macacine alphaherpesvirus 1; test: Antiviral activity against Macacine herpesvirus 1 isolate MR8 infected in african green monkey Vero cells by plaque reduction assay; format: functional, organism-based; settings: Macacine alphaherpesvirus 1, isolate MR8, Vero
[5] = system: Macacine alphaherpesvirus 1; test: Antiviral activity against Macacine herpesvirus 1 isolate MR9 infected in african green monkey Vero cells by plaque reduction assay; format: functional, organism-based; settings: Macacine alphaherpesvirus 1, isolate MR9, Vero
[6] = system: Macacine alphaherpesvirus 1; test: Antiviral activity against Macacine herpesvirus 1 isolate MR10 infected in african green monkey Vero cells by plaque reduction assay; format: functional, organism-based; settings: Macacine alphaherpesvirus 1, isolate MR10, Vero
[7] = system: Macacine alphaherpesvirus 1; test: Antiviral activity against Macacine herpesvirus 1 isolate MR11 infected in african green monkey Vero cells by plaque reduction assay; format: functional, organism-based; settings: Macacine alphaherpesvirus 1, isolate MR11, Vero
[8] = system: Macacine alphaherpesvirus 1; test: Antiviral activity against Macacine herpesvirus 1 isolate MR1 infected in african green monkey Vero cells by plaque reduction assay; format: functional, organism-based; settings: Macacine alphaherpesvirus 1, isolate MR1, Vero
[9] = system: Macacine alphaherpesvirus 1; test: Antiviral activity against Macacine herpesvirus 1 isolate MR2 infected in african green monkey Vero cells by plaque reduction assay; format: functional, organism-based; settings: Macacine alphaherpesvirus 1, isolate MR2, Vero
[10] = system: Macacine alphaherpesvirus 1; test: Antiviral activity against Macacine herpesvirus 1 isolate A1 infected in african green monkey Vero cells by plaque reduction assay; format: functional, organism-based; settings: Macacine alphaherpesvirus 1, isolate A1, Vero
[11] = system: Macacine alphaherpesvirus 1; test: Antiviral activity against Macacine herpesvirus 1 isolate A2 infected in african green monkey Vero cells by plaque reduction assay; format: functional, organism-based; settings: Macacine alphaherpesvirus 1, isolate A2, Vero
[12] = system: Macacine alphaherpesvirus 1; test: Antiviral activity against Macacine herpesvirus 1 isolate A3 infected in african green monkey Vero cells by plaque reduction assay; format: functional, organism-based; settings: Macacine alphaherpesvirus 1, isolate A3, Vero
[13] = system: Macacine alphaherpesvirus 1; test: Antiviral activity against Macacine herpesvirus 1 isolate A4 infected in african green monkey Vero cells by plaque reduction assay; format: functional, organism-based; settings: Macacine alphaherpesvirus 1, isolate A4, Vero
[14] = system: Macacine alphaherpesvirus 1; test: Antiviral activity against Macacine herpesvirus 1 isolate A5 infected in african green monkey Vero cells by plaque reduction assay; format: functional, organism-based; settings: Macacine alphaherpesvirus 1, isolate A5, Vero
[15] = system: Macacine alphaherpesvirus 1; test: Antiviral activity against Macacine herpesvirus 1 isolate A6 infected in african green monkey Vero cells by plaque reduction assay; format: functional, organism-based; settings: Macacine alphaherpesvirus 1, isolate A6, Vero
[16] = system: Macacine alphaherpesvirus 1; test: Antiviral activity against Macacine herpesvirus 1 isolate MC1 infected in african green monkey Vero cells by plaque reduction assay; format: functional, organism-based; settings: Macacine alphaherpesvirus 1, isolate MC1, Vero
[17] = system: Macacine alphaherpesvirus 1; test: Antiviral activity against Macacine herpesvirus 1 isolate MC2 infected in african green monkey Vero cells by plaque reduction assay; format: functional, organism-based; settings: Macacine alphaherpesvirus 1, isolate MC2, Vero
[18] = system: Macacine alphaherpesvirus 1; test: Antiviral activity against Macacine herpesvirus 1 isolate MJ1 infected in african green monkey Vero cells by plaque reduction assay; format: functional, organism-based; settings: Macacine alphaherpesvirus 1, isolate MJ1, Vero
[19] = system: Macacine alphaherpesvirus 1; test: Antiviral activity against Macacine herpesvirus 1 isolate MJ2 infected in african green monkey Vero cells by plaque reduction assay; format: functional, organism-based; settings: Macacine alphaherpesvirus 1, isolate MJ2, Vero
[20] = system: Macacine alphaherpesvirus 1; test: Antiviral activity against Macacine herpesvirus 1 isolate MJ3 infected in african green monkey Vero cells by plaque reduction assay; format: functional, organism-based; settings: Macacine alphaherpesvirus 1, isolate MJ3, Vero
[21] = system: Macacine alphaherpesvirus 1; test: Antiviral activity against Macacine herpesvirus 1 isolate MP1 infected in african green monkey Vero cells by plaque reduction assay; format: functional, organism-based; settings: Macacine alphaherpesvirus 1, isolate MP1, Vero
Human alphaherpesvirus 1 [22] = test: Antiviral activity against HSV1 infected in african green monkey Vero cells by plaque reduction assay; format: functional, organism-based; settings: Human alphaherpesvirus 1, Vero
Human alphaherpesvirus 2 [23] = test: Antiviral activity against HSV2 infected in african green monkey Vero cells by plaque reduction assay; format: functional, organism-based; settings: Human alphaherpesvirus 2, Vero
[24] = system: Macacine alphaherpesvirus 1; test: Antiviral activity against Macacine herpesvirus 1 infected in rabbits assessed as survival after 5 months; format: functional
[25] = system: Macacine alphaherpesvirus 1; test: Antiviral activity against Macacine herpesvirus 1 isolate E2490 infected in african green monkey Vero cells by plaque reduction assay; format: functional, organism-based; settings: Macacine alphaherpesvirus 1, isolate E2490, Vero
[26] = system: Macacine alphaherpesvirus 1; test: Antiviral activity against Macacine herpesvirus 1 isolate MR3 infected in african green monkey Vero cells by plaque reduction assay; format: functional, organism-based; settings: Macacine alphaherpesvirus 1, isolate MR3, Vero
[27] = system: Macacine alphaherpesvirus 1; test: Antiviral activity against Macacine herpesvirus 1 isolate MR4 infected in african green monkey Vero cells by plaque reduction assay; format: functional, organism-based; settings: Macacine alphaherpesvirus 1, isolate MR4, Vero
Human alphaherpesvirus 2 [28] = test: Ratio of acyclovir EC50 to compound EC50 for HSV 2 infected in african green monkey Vero cells; format: functional
Human alphaherpesvirus 1 [29] = test: Ratio of acyclovir EC50 to compound EC50 for HSV1 infected in african green monkey Vero cells; format: functional
[30] = system: Macacine alphaherpesvirus 1; test: Ratio of acyclovir EC50 to compound EC50 for Macacine herpesvirus 1 isolate MJ3 infected in african green monkey Vero cells; format: functional
[31] = system: Macacine alphaherpesvirus 1; test: Ratio of acyclovir EC50 to compound EC50 for Macacine herpesvirus 1 isolate MP1 infected in african green monkey Vero cells; format: functional
[32] = system: Macacine alphaherpesvirus 1; test: Ratio of acyclovir EC50 to compound EC50 for Macacine herpesvirus 1 isolate MJ2 infected in african green monkey Vero cells; format: functional
[33] = system: Macacine alphaherpesvirus 1; test: Ratio of acyclovir EC50 to compound EC50 for Macacine herpesvirus 1 isolate MJ1 infected in african green monkey Vero cells; format: functional
[34] = system: Macacine alphaherpesvirus 1; test: Ratio of acyclovir EC50 to compound EC50 for Macacine herpesvirus 1 isolate MC2 infected in african green monkey Vero cells; format: functional
[35] = system: Macacine alphaherpesvirus 1; test: Ratio of acyclovir EC50 to compound EC50 for Macacine herpesvirus 1 isolate MC1 infected in african green monkey Vero cells; format: functional
[36] = system: Macacine alphaherpesvirus 1; test: Ratio of acyclovir EC50 to compound EC50 for Macacine herpesvirus 1 isolate A6 infected in african green monkey Vero cells; format: functional
[37] = system: Macacine alphaherpesvirus 1; test: Ratio of acyclovir EC50 to compound EC50 for Macacine herpesvirus 1 isolate A5 infected in african green monkey Vero cells; format: functional
[38] = system: Macacine alphaherpesvirus 1; test: Ratio of acyclovir EC50 to compound EC50 for Macacine herpesvirus 1 isolate A4 infected in african green monkey Vero cells; format: functional
[39] = system: Macacine alphaherpesvirus 1; test: Ratio of acyclovir EC50 to compound EC50 for Macacine herpesvirus 1 isolate A3 infected in african green monkey Vero cells; format: functional
[40] = system: Macacine alphaherpesvirus 1; test: Ratio of acyclovir EC50 to compound EC50 for Macacine herpesvirus 1 isolate A2 infected in african green monkey Vero cells; format: functional
[41] = system: Macacine alphaherpesvirus 1; test: Ratio of acyclovir EC50 to compound EC50 for Macacine herpesvirus 1 isolate A1 infected in african green monkey Vero cells; format: functional
[42] = system: Macacine alphaherpesvirus 1; test: Ratio of acyclovir EC50 to compound EC50 for Macacine herpesvirus 1 isolate MR1 infected in african green monkey Vero cells; format: functional
[43] = system: Macacine alphaherpesvirus 1; test: Ratio of acyclovir EC50 to compound EC50 for Macacine herpesvirus 1 isolate MR2 infected in african green monkey Vero cells; format: functional
[44] = system: Macacine alphaherpesvirus 1; test: Ratio of acyclovir EC50 to compound EC50 for Macacine herpesvirus 1 isolate MR11 infected in african green monkey Vero cells; format: functional
[45] = system: Macacine alphaherpesvirus 1; test: Ratio of acyclovir EC50 to compound EC50 for Macacine herpesvirus 1 isolate MR10 infected in african green monkey Vero cells; format: functional
[46] = system: Macacine alphaherpesvirus 1; test: Ratio of acyclovir EC50 to compound EC50 for Macacine herpesvirus 1 isolate MR9 infected in african green monkey Vero cells; format: functional
[47] = system: Macacine alphaherpesvirus 1; test: Ratio of acyclovir EC50 to compound EC50 for Macacine herpesvirus 1 isolate MR8 infected in african green monkey Vero cells; format: functional
[48] = system: Macacine alphaherpesvirus 1; test: Ratio of acyclovir EC50 to compound EC50 for Macacine herpesvirus 1 isolate MR7 infected in african green monkey Vero cells; format: functional
[49] = system: Macacine alphaherpesvirus 1; test: Ratio of acyclovir EC50 to compound EC50 for Macacine herpesvirus 1 isolate MR6 infected in african green monkey Vero cells; format: functional
[50] = system: Macacine alphaherpesvirus 1; test: Ratio of acyclovir EC50 to compound EC50 for Macacine herpesvirus 1 isolate MR5 infected in african green monkey Vero cells; format: functional
[51] = system: Macacine alphaherpesvirus 1; test: Ratio of acyclovir EC50 to compound EC50 for Macacine herpesvirus 1 isolate MR4 infected in african green monkey Vero cells; format: functional
[52] = system: Macacine alphaherpesvirus 1; test: Ratio of acyclovir EC50 to compound EC50 for Macacine herpesvirus 1 isolate MR3 infected in african green monkey Vero cells; format: functional
[53] = system: Macacine alphaherpesvirus 1; test: Ratio of acyclovir EC50 to compound EC50 for Macacine herpesvirus 1 isolate E2490 infected in african green monkey Vero cells; format: functional
[54] = system: Macacine alphaherpesvirus 1; test: Antiviral activity against thymidine kinase deficient Macacine herpesvirus 1 isolate E2490 infected in african green monkey Vero cells by plaque reduction assay; format: functional, organism-based; settings: Macacine alphaherpesvirus 1, isolate E2490, Vero

Nc1nc2c(ncn2COCCO)c(=O)[nH]1 [ACYCLOVIR]
33%: Activity [24]
19.3 µM: EC50 [1] | EC50 [2] | EC50 [3] | EC50 [4] | EC50 [5] | EC50 [6] | EC50 [7] | EC50 [8] | EC50 [9] | EC50 [10] | EC50 [11] | EC50 [12] | EC50 [13] | EC50 [14] | EC50 [15] | EC50 [16] | EC50 [17] | EC50 [18] | EC50 [19] | EC50 [20] | EC50 [21] | EC50 (Human alphaherpesvirus 1 [22]) | EC50 (Human alphaherpesvirus 2 [23]) | EC50 [25] | EC50 [26] | EC50 [27]

Cc1cn([C@H]2O[C@@H](CO)[C@H](O)[C@H]2F)c(=O)[nH]c1=O [CLEVUDINE]
100: Ratio EC50 (Human alphaherpesvirus 2 [28]) | Ratio EC50 (Human alphaherpesvirus 1 [29]) | Ratio EC50 [30] | Ratio EC50 [31] | Ratio EC50 [32] | Ratio EC50 [33] | Ratio EC50 [34] | Ratio EC50 [35] | Ratio EC50 [36] | Ratio EC50 [37] | Ratio EC50 [38] | Ratio EC50 [39] | Ratio EC50 [40] | Ratio EC50 [41] | Ratio EC50 [42] | Ratio EC50 [43] | Ratio EC50 [44] | Ratio EC50 [45] | Ratio EC50 [46] | Ratio EC50 [47] | Ratio EC50 [48] | Ratio EC50 [49] | Ratio EC50 [50] | Ratio EC50 [51] | Ratio EC50 [52] | Ratio EC50 [53]

Nc1nc2c(ncn2COC(CO)CO)c(=O)[nH]1 [GANCICLOVIR]
100%: Activity [24]
19.3 µM: EC50 [16] | EC50 (Human alphaherpesvirus 1 [22]) | EC50 (Human alphaherpesvirus 2 [23])

Nc1ncnc2c1ncn2[C@@H]1O[C@H](CO)[C@@H](O)[C@@H]1O [VIDARABINE]
37.8 µM: EC50 [54]
26.5 µM: EC50 [1] | EC50 [2] | EC50 [3] | EC50 [4] | EC50 [5] | EC50 [6] | EC50 [7] | EC50 [8] | EC50 [9] | EC50 [10] | EC50 [11] | EC50 [12] | EC50 [13] | EC50 [14] | EC50 [15] | EC50 [16] | EC50 [17] | EC50 [18] | EC50 [19] | EC50 [20] | EC50 [21] | EC50 (Human alphaherpesvirus 1 [22]) | EC50 (Human alphaherpesvirus 2 [23]) | EC50 [25] | EC50 [26] | EC50 [27]
